Measured values from US11752120B2, “Use of succinic acid in increasing sensitivity of bacteria to antibiotics” (SUN YAT-SEN UNIVERSITY, priority 2018, dated 2023).
Where two headings read alike, the source gives them in different places.

Experiments:
[1] = tested on: clinical Escherichia coli biofilm; experiment: In vitro bactericidal assay of biofilm; assay type: cell-based; details: catheter biofilm, 6 hours; succinic acid 580 mg/kg; ampicillin 2000 mg/kg for YT16, 500 mg/kg for YT28
Experimental: (§1) […] of clinical Escherichia coli (YT3, YT11, YT12, YT16, YT17, YT21, YT22, YT23, YT28, YT33) were picked, monocloned into LB medium, and cultured overnight, then were transferred into 2 mL fresh LB medium at 1:200, and added with a 6 mm PE-50 biological catheter that was sterilized by UV, and cultured in a 37° C. incubator for culture for 24 hours. The bacterial solution was replaced with 1 mL of LB medium daily, and the catheter was continuously cultured for 3 days. The prepared biofilm was washed 5 times with 1 mL of sterile normal saline, and then placed in a 1.5 mL EP tube.
The assay was divided into 4 groups: normal saline control group, succinic acid group, ampicillin group, ampicillin+succinic acid group, and the catheters were treated in a shaker at 37° C. and 200 rpm. A dosage of succinic acid was 580 mg/kg, and a dosage of ampicillin was 2000 mg/kg for YT16, and 500 mg/kg for YT28. After 6 hours, ultrasonic cleaning was conducted for 15 minutes, the biofilm on the catheter was eluted and thoroughly mixed, and after gradient dilution, spot plate counting was performed. The formula for calculating the bacterial survival rate is: number of viable bacteria in each group/number of viable bacteria in the control group×100%.

[2] = tested on: clinical Escherichia coli YT16 and YT28; experiment: Viable bacteria count / survival rate after antibiotic with or without succinic acid in M9 medium; assay type: cell-based
Experimental: A single colony of clinical bacteria was picked from a solid LB plate and was inoculated in 5 mL LB liquid medium for culture at 37° C. and 200 rpm for 16 hours, and then was inoculated in 100 mL LB liquid medium at a ratio of 1:100 (v/v) and was cultured at 37° C. until OD600 value was 1.0. 20 mL of bacterial solution was collected and centrifuged at 8000 rpm for 5 minutes, the supernatant was cleared and bacterial cells were washed with an equal volume of 0.85% normal saline, and finally the bacterial cells were suspended with 1×M9 basic medium (containing 10 mM acetate), the OD value of the bacterial solution was adjusted to 0.5, and then 5 mL of the bacterial solution was aliquoted in a test tube for the following experimental studies.
The survival rates of the clinical bacteria in medium with adding succinic acid and without adding succinic acid at the same antibiotic concentration were compared.
The formula is the number of viable bacteria when different concentrations of succinic acid were added/the number of viable bacteria without adding succinic acid×100%.
In order to study whether clinical Escherichia coli has effect on penicillin antibiotics after adding succinic acid, two clinical Escherichia coli samples of YT16 and YT28 were prepared according to step 2 in Embodiment 1, 20 mM succinic acid and 3 kinds of penicillin were added respectively, […], the number of viable bacteria was counted, and the survival rate was calculated. […]

[3] = tested on: clinical Escherichia coli YT16 and YT28; details: 6 hours (FIG. 10)
Experimental: A concentration of the treated bacteria was adjusted to 106 CFU/mL, 1 mL of the treated bacteria was taken and transferred into a 1.5 mL EP tube, 10 μL of 3 mM DiOC2 (3,3′-diethyloxa-carbocyanine iodide) was added, and oscillation and incubation were performed for 30 minutes after mixing sufficiently. The bacteria were transferred to a flow cytometry analysis tube before use on the machine, a FACSCalibur flow cytometer (Becton Dickinson, San Jose, Calif., USA) was used for detection, and parameter settings were performed according to the instrument operating procedures. The dye DiOC2 (3) has a green fluorescence excitation wavelength of 488 nm, an emission wavelength of 530 nm, a red fluorescence excitation wavelength of 488 nm, and an emission wavelength of 610 nm. The ratio of the red light intensity to the green light intensity indicates the intensity of the membrane potential, and calculation formula of the proton motive force (PMF) value is LOG (10^3/2*Y mean/X mean). Y mean and X mean represent red light intensity and green light intensity, respectively. Determination was performed according the instructions of the BacLight bacterial membrane potential kit (Invitrogen) kit.

[4] = tested on: clinical Escherichia coli YT16 and YT28; details: 6 hours (FIG. 9)
Experimental: The cultured bacteria were washed and resuspended in normal saline, OD600 value was adjusted to 1.0, and 1 mL of bacterial cells were taken for ultrasonication, and after centrifugation, the supernatant was taken to determine the antibiotic content. The ampicillin ELISA rapid diagnostic kit (purchased from Shenzhen Lvshiyuan Biotechnology Co., Ltd., with a detection range of 2 to 1000 g/mL) was used for detection and the specific steps are as follows: 50 μL of sample (or standard) and 50 μL of antibody were added into a 96-well plate, mixed gently, and incubated at 25° C. for 30 minutes, and the plate was washed 4 to 5 times; 100 μL of enzyme standard was added, mixed gently, and incubated away from light at 25° C. for 30 minutes, and the plate was washed 4 to 5 times; 50 μL of substrates A and B was added respectively, mixed gently, and incubated away from light at 25° C. for 15 minutes; and finally, a stop solution was added to stop the reaction, and an enzyme-labeled instrument was set to measure the absorbance of the reaction product at 450 nm. A standard curve was drawn, with the percent absorbance of the standard as an ordinate and semi-log of the concentration of the ampicillin standard (ng/mL) as the abscissa. AMP actual concentration=sample detection concentration xdilution multiple.

[5] = tested on: clinical Escherichia coli biofilm; details: mice
Experimental: as §1
Further, mice were used as test animals, and the prepared clinical Escherichia coli biofilm was implanted into the mouse urethra to construct a mouse chronic urinary tract infection model for conducting an in vivo clinical Escherichia coli clearance test was performed: a 6-mm PE-50 biological catheter of a clinical Escherichia coli biofilm formed by culture for 3 days was implanted into the urethra of a 5-week-old Kunming female mouse (about 20 g). After 48 hours, mice were divided into 2 groups of 5 mice each, which were the ampicillin group and the ampicillin+succinic acid group. […] 24 hours after the last injection, the catheter tube was taken into normal saline to suspend the biofilm bacteria in the ultrasound, and gradient dilution and plate counting were performed to calculate the bacterial survival rate on the catheter biofilm. The calculation formula is the number of viable bacteria in the injection substance group/number of viable bacteria in the control group×100%.

[6] = YT16, 10 mg/mL ampicillin + 1.25 mM succinic acid, 4 hours (FIG. 3)
[7] = YT16, 10 mg/mL ampicillin + 20 mM succinic acid, 4 hours (FIG. 3)
[8] = YT28, 10 mg/mL ampicillin + 1.25 mM succinic acid, 4 hours (FIG. 3)
[9] = YT28, 10 mg/mL ampicillin + 20 mM succinic acid, 4 hours (FIG. 3)

O=C(O)CCC(=O)O [succinic acid]
clearance of clinical Escherichia coli on the biofilms, used alone [1]: cannot clear | survival rate ([2]; YT16, 2.5 mg/mL ampicillin after adding 20 mM succinic acid, 4 hours): 30.06% | survival rate ([2]; YT16, 5 mg/mL ampicillin after adding 20 mM succinic acid, 4 hours): 2.06% | bacterial survival rate [2, 6]: 69.23% | bactericidal efficiency [2, 6]: 1.07 times | bacterial survival rate [2, 7]: 1.19% | bactericidal efficiency [2, 7]: 61 times | survival rate ([2]; YT16, 10 mg/mL ampicillin after adding 20 mM succinic acid, 4 hours (FIG. 1)): 0.41% | survival rate ([2]; YT16, 10 mg/mL ampicillin and 20 mM succinic acid, 1 hour (FIG. 2)): 71.54% | survival rate ([2]; YT16, 10 mg/mL ampicillin and 20 mM succinic acid, 4 hours (FIG. 2)): 0.78% | survival rate ([2]; YT16, 10 mg/mL ampicillin and 20 mM succinic acid, 7 hours (FIG. 2)): 0.01% | increase of sensitivity to penicillin G sodium salt ([2]; YT16, 20 mM succinic acid + 0.5 mg/mL penicillin G sodium salt, 4 hours): 4.96 times | increase of sensitivity to penicillin G sodium salt ([2]; YT16, 20 mM succinic acid + 0.75 mg/mL penicillin G sodium salt, 4 hours): 5.13 times | increase of sensitivity to carbenicillin ([2]; YT16, 20 mM succinic acid + 1.25 mg/mL carbenicillin, 4 hours): 1.99 times | increase of sensitivity to carbenicillin ([2]; YT16, 20 mM succinic acid + 2.5 mg/mL carbenicillin, 4 hours): 11.65 times | increase of sensitivity to amoxicillin ([2]; YT16, 20 mM succinic acid + 5 mg/mL amoxicillin, 4 hours): 15.86 times | increase of sensitivity to amoxicillin ([2]; YT16, 20 mM succinic acid + 7.5 mg/mL amoxicillin, 4 hours): 3.37 times | bactericidal efficiency ([2]; YT16, 20 mM succinic acid + 10 mg/mL ampicillin vs ampicillin only, at 1 hour (FIG. 2)): 1.33 time | bactericidal efficiency ([2]; YT16, 20 mM succinic acid + 10 mg/mL ampicillin vs ampicillin only, at 4 hours (FIG. 2)): 60.66 times | bactericidal efficiency ([2]; YT16, 20 mM succinic acid + 10 mg/mL ampicillin vs ampicillin only, at 7 hours (FIG. 2)): 1744.19 times | bactericidal efficiency increase ([2]; YT16, 20 mM succinic acid added to 2.5 mg/mL ampicillin, 4 hours, vs ampicillin alone): more than 2 times | bactericidal efficiency increase ([2]; YT16, 20 mM succinic acid added to 5 mg/mL ampicillin, 4 hours, vs ampicillin alone): 16.75 times | bactericidal efficiency increase ([2]; YT16, 20 mM succinic acid added to 10 mg/mL ampicillin, 4 hours, vs ampicillin alone (FIG. 1)): 62.25 times | bactericidal efficiency increase ([2]; YT16, 20 mM succinic acid added to 20 mg/mL ampicillin, 4 hours, vs ampicillin alone): 105.96 times | enhancement of sensitivity to different kinds of antibiotics ([2]; YT16, 20 mM succinic acid with gentamicin, ciprofloxacin, tetracycline, erythromycin, clindamycin or rifampin, 4 hours (FIG. 6)): about 2 times | survival rate ([2]; YT16, 20 mg/mL ampicillin after adding 20 mM succinic acid, 4 hours): 0.12% | survival rate ([2]; YT28, 2.5 mg/mL ampicillin after adding 20 mM succinic acid, 4 hours): 41.62% | survival rate ([2]; YT28, 5 mg/mL ampicillin after adding 20 mM succinic acid, 4 hours): 12.71% | bacterial survival rate [2, 8]: 80.31% | bactericidal efficiency [2, 8]: 1.07 times | bacterial survival rate [2, 9]: 4.24% | bactericidal efficiency [2, 9]: 20 times | survival rate ([2]; YT28, 10 mg/mL ampicillin after adding 20 mM succinic acid, 4 hours (FIG. 1)): 1.7% | survival rate ([2]; YT28, 10 mg/mL ampicillin and 20 mM succinic acid, 1 hour (FIG. 2)): 66.81% | survival rate ([2]; YT28, 10 mg/mL ampicillin and 20 mM succinic acid, 4 hours (FIG. 2)): 1.25% | survival rate ([2]; YT28, 10 mg/mL ampicillin and 20 mM succinic acid, 7 hours (FIG. 2)): 0.18% | increase of sensitivity to penicillin G sodium salt ([2]; YT28, 20 mM succinic acid + 0.5 mg/mL penicillin G sodium salt, 4 hours): 2.66 times | increase of sensitivity to penicillin G sodium salt ([2]; YT28, 20 mM succinic acid + 0.75 mg/mL penicillin G sodium salt, 4 hours): 9.34 times | increase of sensitivity to carbenicillin ([2]; YT28, 20 mM succinic acid + 1.25 mg/mL carbenicillin, 4 hours): 1.8 times | increase of sensitivity to carbenicillin ([2]; YT28, 20 mM succinic acid + 2.5 mg/mL carbenicillin, 4 hours): 15.85 times | increase of sensitivity to amoxicillin ([2]; YT28, 20 mM succinic acid + 5 mg/mL amoxicillin, 4 hours): 13.94 times | increase of sensitivity to amoxicillin ([2]; YT28, 20 mM succinic acid + 7.5 mg/mL amoxicillin, 4 hours): 31.85 times | bactericidal efficiency ([2]; YT28, 20 mM succinic acid + 10 mg/mL ampicillin vs ampicillin only, at 1 hour (FIG. 2)): 1.44 time | bactericidal efficiency ([2]; YT28, 20 mM succinic acid + 10 mg/mL ampicillin vs ampicillin only, at 4 hours (FIG. 2)): 21.45 times | bactericidal efficiency ([2]; YT28, 20 mM succinic acid + 10 mg/mL ampicillin vs ampicillin only, at 7 hours (FIG. 2)): 78.34 times | bactericidal efficiency increase ([2]; YT28, 20 mM succinic acid added to 2.5 mg/mL ampicillin, 4 hours, vs ampicillin alone): more than 1.65 times | bactericidal efficiency increase ([2]; YT28, 20 mM succinic acid added to 5 mg/mL ampicillin, 4 hours, vs ampicillin alone): 4.42 times | bactericidal efficiency increase ([2]; YT28, 20 mM succinic acid added to 10 mg/mL ampicillin, 4 hours, vs ampicillin alone (FIG. 1)): 21.06 times | bactericidal efficiency increase ([2]; YT28, 20 mM succinic acid added to 20 mg/mL ampicillin, 4 hours, vs ampicillin alone): 34.48 times | survival rate ([2]; YT28, 20 mg/mL ampicillin after adding 20 mM succinic acid, 4 hours): 0.79% | increase of proton motive force of the bacteria ([3]; YT16, succinic acid added vs control without): 1.2 times | increase of proton motive force of the bacteria ([3]; YT28, succinic acid added vs control without): 1.45 times | increase of the number of antibiotics (ampicillin) in the bacteria ([4]; YT16, ampicillin and succinic acid vs only ampicillin): 5.97 times | increase of the number of antibiotics (ampicillin) in the bacteria ([4]; YT28, ampicillin and succinic acid vs only ampicillin): 7.99 times | bactericidal efficiency increase on catheter biofilm ([5]; i.p. 590 mg/kg succinic acid + ampicillin (2000 or 500 mg/kg) twice a day for 3 days vs ampicillin group, 1st of the 9 strains (YT3 by order of b93)): 14 times | bactericidal efficiency increase on catheter biofilm ([5]; i.p. 590 mg/kg succinic acid + ampicillin twice a day for 3 days vs ampicillin group, 2nd of the 9 strains (YT11 by order of b93)): 5 times | bactericidal efficiency increase on catheter biofilm ([5]; i.p. 590 mg/kg succinic acid + ampicillin twice a day for 3 days vs ampicillin group, 3rd of the 9 strains (YT12 by order of b93)): 53 times | bactericidal efficiency increase on catheter biofilm ([5]; i.p. 590 mg/kg succinic acid + ampicillin twice a day for 3 days vs ampicillin group, 4th of the 9 strains (YT16 by order of b93)): 30 times | bactericidal efficiency increase on catheter biofilm ([5]; i.p. 590 mg/kg succinic acid + ampicillin twice a day for 3 days vs ampicillin group, 5th of the 9 strains (YT17 by order of b93)): 5 times | bactericidal efficiency increase on catheter biofilm ([5]; i.p. 590 mg/kg succinic acid + ampicillin twice a day for 3 days vs ampicillin group, 6th of the 9 strains (YT21 by order of b93)): 9 times | bactericidal efficiency increase on catheter biofilm ([5]; i.p. 590 mg/kg succinic acid + ampicillin twice a day for 3 days vs ampicillin group, 7th of the 9 strains (YT22 by order of b93)): 38 times | bactericidal efficiency increase on catheter biofilm ([5]; i.p. 590 mg/kg succinic acid + ampicillin twice a day for 3 days vs ampicillin group, 8th of the 9 strains (YT23 by order of b93)): 17 times | bactericidal efficiency increase on catheter biofilm ([5]; i.p. 590 mg/kg succinic acid + ampicillin twice a day for 3 days vs ampicillin group, 9th of the 9 strains (YT28 by order of b93)): 53 times
